# Measurements as given in ChEMBL document CHEMBL4613259, “Biosynthesis of Amino Acid Derived α-Pyrones by an NRPS-NRPKS Hybrid Megasynthetase in Fungi” (J Nat Prod, 2020).
# The source made the active and inactive calls. The rule behind the calls is not given here.
# Test system: Aspergillus nidulans
# Test: Growth inhibition of Aspergillus nidulans at 0 to 300 ug/ml incubated for 4 days
# Assay type: functional, organism-based
row,Structure (SMILES),growth inhibition (GI)
1,N[C@@H](Cc1ccccc1)c1cc(O)cc(=O)o1,Active

# Test system: Candida albicans
# Test: Antifungal activity against Candida albicans SC5314 up to 100 ug/ml after 48 hrs by microdilution assay
# Assay type: functional, organism-based
row,Structure (SMILES),Activity
1,COc1cc([C@H](Cc2ccc(Br)cc2)NC(C)=O)oc(=O)c1,inactive
2,COc1cc([C@H](Cc2ccccc2)NC(C)=O)oc(=O)c1,inactive
3,COc1cc([C@H](Cc2ccccc2Cl)NC(C)=O)oc(=O)c1,inactive
4,COc1cc([C@H](Cc2ccc(F)cc2)NC(C)=O)oc(=O)c1,inactive
5,COc1cc([C@H](Cc2ccc(Cl)cc2)NC(C)=O)oc(=O)c1,inactive
6,COc1cc([C@H](Cc2cccc(Cl)c2)NC(C)=O)oc(=O)c1,inactive
7,COc1cc([C@H](Cc2ccc(C)cc2)NC(C)=O)oc(=O)c1,inactive

# Test system: T47D
# Test: Growth inhibition of human T47D cells
# Assay type: functional, cell-based
row,IC50,Structure (SMILES)
1,9.2 µg/mL,COc1cc([C@H](Cc2ccccc2)NC(C)=O)oc(=O)c1
